Data: patent US5216142A, “Anti-virals” (Efamol Holdings plc, priority 1989, dated 1993)
Converted amounts (≈) assume the structure as drawn. “Also recorded” adds a separate entry of the source. Like-named read-outs stand apart in the source and are kept apart here.

Legend:
[1] = system: herpes simplex virus Type I (HSV I); experiment: Inhibition of virus replication (plaque assay, BHK-21 cells); type: cell-based, Type 1, Troisbel strain; settings: for Inhibition of viral replication (in words): up to 100 mg/l
Description: 1. Mono-layers of baby hamster kidney cells (BHK-21) are prepared in Petri dishes containing ETC medium (Eagle's minimal essential medium +10% tryptose phosphate broth +10% new born calf serum).
2. After incubation the medium is poured off to leave the layer of cells attached to the Petri dish. A solution containing virus, specifically herpes simplex virus Type I (HSV I) for example, in ETC medium is then added to the dish and incubated with intermittent rocking for one hour to allow the virus to adsorb to the cells of the mono-layer. Unadsorbed virus is then removed by pouring off the virus-containing medium and washing twice with new sterile medium. Then new medium is added to each Petri dish. At this stage various concentrations of drug can be added to the medium.
3. […] First the dishes are frozen to -70° C. and thawed to disrupt the mono-layer and break up the cells. Then the medium and the disrupted cells are transferred to bijou bottles and sonicated to break down the cells completely and to release all the virus particles the cells contain. The sonicated medium is then diluted with fresh sterile ETC medium to give concentrations of the original Petri dish fluid of 10^-2, 10^-4, 10^-6 and 10^-8.
4. The number of virus particles (plaque forming units) in the dilutions is then assayed. A standard number of BHK cells (usually 8×10^6) is added to 2 ml of the diluted solutions and incubated for one hour, with cautious, gentle shaking, and 8 ml of Eagle's minimal essential medium +2% new born calf serum + carboxymethyl cellulose is then added to the cell suspension. This medium has gelling properties which prevent spreading of the virus through the medium and which encourage the formation of discrete plaques in cell mono-layers. The medium from each dilution is then dispensed into Petri dishes and incubated for two to three days.
5. The number of plaques formed is then counted and the amount of active virus expressed as the number of plaque forming units (pfus) as follows. The medium is poured off and the cell mono-layer is fixed using 10% formol saline and stained with dilute carbol fuchsin. The number of plaques in each Petri dish is counted. Based on the dilutions, the number of plaque forming virus particles in the original solutions is calculated.
In the Table, the figures are the concentration of viral particles in pfu/ml present in the cells + medium at the end of the replication stage (3).

[2] = system: MT-4 cells; experiment: in vitro; type: cell-based; settings: human, 120 h
Description: (§1) Results in relation to HIV virus were obtained by the method of Pauwels et al, Journal of Virological Methods 20, 309 to 321 (1988), as follows:
(§2) MT-4 cells (2.5×10^4 /well) were infected with HIV (100 CCID50) and incubated in the presence of varying concentrations of the test compounds (added immediately after virus infection). After five days incubation at 37° C. in a CO2 incubator, the number of viable cells was assessed by the MTT (tetrazolium) method. Anti-viral activity and cytotoxicity of the compounds are expressed as ED50 (50% effective dose) and CD50 (50% cytotoxic dose), respectively. SI (selectivity index=CD50 /ED50.

[3] = in vitro; type: cell-based; settings: human, mt-4 cells, CD50 (50% cytotoxic dose)
Description: as §1, §2

[4] = system: herpes simplex virus Type I; experiment: Inactivation of virus (30 minutes incubation, plaque assay); type: cell-based, Type 1, Troisbel strain; settings: for log reduction at 5 µg/mL: 5 mg/l
Description: 1. A virus solution containing 2×10^5 pfu/ml is prepared in phosphate buffered saline (Dulbecco's A).
2. The compound to be tested is made up in Dulbecco's medium A in a suitable range of dilutions.
3. Equal volumes of the virus and drug solution are mixed together. Control solutions without drug are also used.
4. The virus and drug are incubated for an appropriate period of time, in this example, thirty minutes.
5. The numbers of active viral particles in the solution are assayed as in items 4 and 5 under A.
The results are shown below (Table 6). In the Table, the figures are concentrations of viral particles present after incubation of the virus for 30 minutes with solutions of the drugs.

[5] = system: LAV-2ROD; experiment: Anti-HIV activity assay, LAV-2ROD (MT-4 cells, MTT method); type: cell-based; settings: for Selectivity index (SI): CD50/ED50, LAV-2ROD; for EC50: MT4, 120 h, MT-4 cells, five days, LAV-2ROD, read-out: ED50 (50% effective dose)
Description: as §1, §2
(§3) These are given in Table 8 and Table 9 below in relation to HTLV-IIIB and LAV-2ROD viruses.

[6] = system: HTLV-IIIB; experiment: Anti-HIV activity assay, HTLV-IIIB (MT-4 cells, MTT method); type: cell-based; settings: for Selectivity index (SI): CD50/ED50, HTLV-IIIB; for EC50: Human immunodeficiency virus 1, MT4, 120 h, MT-4 cells, five days, HTLV-IIIB, read-out: ED50 (50% effective dose)
Description: as §1, §2, §3

[7] = Human alphaherpesvirus 1, 0.5 h, 1 mg/l, read-out: Inactivation of virus (log10 reduction in virus titre)
[8] = Human alphaherpesvirus 1, 0.5 h, read-out: Inactivation of virus (log10 reduction in virus titre)

Row | SMILES | Inhibition of herpes virus replication (in words) [1] | Inhibition of viral replication (in words) [1] | CD50 (50% cytotoxic dose) [2] | CC50 at 120 h [3] | Virucidal activity / inactivation of herpes virus (in words) [4] | log reduction at 1 µg/mL [4, 7] | log reduction at 5 µg/mL [4, 8] | Virucidal activity / inactivation of herpes virus (in words) ([4]; listed as AZT-LA) | % in chloroform phase (partition co-efficients, water/chloroform) | Selectivity index (SI) [5] | EC50 [5] | Selectivity index (SI) [6] | EC50 [6] | log reduction at 0.1 µg/mL ([1]; Human alphaherpesvirus 1, BHK-21, 24 h, 0.1 mg/l, read-out: Inhibition of viral replication (log10 reduction in virus titre)) | log reduction at 0.5 µg/mL ([1]; Human alphaherpesvirus 1, BHK-21, 24 h, 0.5 mg/l, read-out: Inhibition of viral replication (log10 reduction in virus titre)) | log reduction at 1 µg/mL ([1]; Human alphaherpesvirus 1, BHK-21, 24 h, 1 mg/l, read-out: Inhibition of viral replication (log10 reduction in virus titre)) | log reduction at 1 µg/mL ([1]; Human alphaherpesvirus 1, BHK-21, 24 h, 1 mg/liter solution, read-out: Reduction of virus replication, log) | inhibition at 1 µg/mL ([1]; Human alphaherpesvirus 1, BHK-21, 24 h, 1 mg/liter solution, read-out: Reduction of virus replication, percent) | log reduction at 1 µg/mL ([4]; Human alphaherpesvirus 1, 0.5 h, 1 mg/liter solution, read-out: Inactivation of virus, log) | killing at 1 µg/mL ([4]; Human alphaherpesvirus 1, 0.5 h, 1 mg/liter solution, read-out: Inactivation of virus, percent)
1 | CCCCC/C=C\C/C=C\CCCCCCCC(=O)OC[C@H]1O[C@@H](n2cc(C)c(=O)[nH]c2=O)C[C@@H]1N=[N+]=[N-] [AK 2] | to inhibit its replication | no inhibition | 5.9512 µg/mL | 9.49 mg/L (≈ 17.9 µM) | virucidal | 2.2 | 2.8 | able both to inactivate the herpes virus | > 99% | 7999 | 0.000744 mg/L (≈ 0.0014 µM) | 26008 | 0.000365 mg/L (≈ 0.000689 µM) | – | – | – | – | – | – | –
2 | CCCCC/C=C\C/C=C\CCCCCCCC(=O)O [LA, linoleic acid, reference compound] | completely unable to inhibit viral replication | – | – | – | active at concentrations comparable to GLA; also recorded: same effect in inactivating the herpes virus | – | – | – | – | – | – | – | – | – | – | – | – | – | – | –
3 | CCCCC/C=C\C/C=C\CCCCCCCC(=O)OC[C@@H]1C=C[C@H](n2cc(C)c(=O)[nH]c2=O)O1 [AK 15] | – | – | 24.23 µg/mL | 16.5 mg/L (≈ 33.9 µM) | – | – | – | – | – | 378 | 0.064 mg/L (≈ 0.132 µM) | 256 | 0.064 mg/L (≈ 0.132 µM) | – | – | – | – | – | – | –
4 | CCCCC/C=C\C/C=C\C/C=C\CCCCC(=O)Nc1nc2c(ncn2COCCOC(=O)CCCC/C=C\C/C=C\C/C=C\CCCCC)c(=O)[nH]1 [AK 10, digamma-linolenyl acyclovir] | very effective | – | – | – | virucidal; also recorded: very effective | 0.94 | 1.54 | – | > 99% | < 1 | > 40 mg/L | < 1 | > 8 mg/L | 0.45 | 0.86 | 1.13 | 1 | 90% | 1 | 90%
5 | CCCCC/C=C\C/C=C\CCCCCCCC(=O)OC[C@H]1O[C@@H]2C[C@H]1Oc1nc(=O)c(C)cn12 [AK 4] | – | no inhibition | 17.4332 µg/mL | 18.2 mg/L (≈ 37.3 µM) | virucidal | 2.75 | 2.9 | – | > 99% | < 1 | > 40 mg/L | < 1 | > 40 mg/L | – | – | – | – | – | – | –
6 | Cc1cn([C@H]2C=C[C@@H](CO)O2)c(=O)[nH]c1=O [AK 16, dideoxy-didehydro thymidine, reference compound] | – | – | 46.65 µg/mL | 44.4 mg/L (≈ 198 µM) | – | – | – | – | – | 1196 | 0.039 mg/L (≈ 0.174 µM) | 574 | 0.077 mg/L (≈ 0.343 µM) | – | – | – | – | – | – | –
